The record followed here is patent publication US20130150354A1, “NEW SELECTIVE CCR2 ANTAGONISTS” (BOEHRINGER INGELHEIM INTERNATIONAL GMBH, priority 2011, published 2013).

Assay [1] has as its target T1, CCR2 (Homo sapiens, UniProt P41597).
T1 construct: Membranes were prepared from THP-1 cells; endogenous in cells; host or cells: THP-1 (human acute monocytic leukaemia cells), membrane preparation
T1 sequence (P41597 1-360 isoform P41597-2): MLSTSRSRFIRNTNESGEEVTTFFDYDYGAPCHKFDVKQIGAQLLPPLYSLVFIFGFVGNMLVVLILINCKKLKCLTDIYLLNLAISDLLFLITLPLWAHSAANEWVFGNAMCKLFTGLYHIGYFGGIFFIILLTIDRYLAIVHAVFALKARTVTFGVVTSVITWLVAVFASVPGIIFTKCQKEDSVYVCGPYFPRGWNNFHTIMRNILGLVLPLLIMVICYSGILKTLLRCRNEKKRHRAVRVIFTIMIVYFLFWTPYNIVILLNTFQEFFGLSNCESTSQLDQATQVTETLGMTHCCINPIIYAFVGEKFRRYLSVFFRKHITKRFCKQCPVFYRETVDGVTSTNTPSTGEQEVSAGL
In words: CCR2 receptor membrane binding assay (THP-1 membranes, 125I-MCP-1, SPA beads). To be noted: THP-1 cell membranes, 125I-MCP-1, 8 h; read-out: hKi [nM] (CCR2). Here is the method:
The above exemplary substances have been tested for binding to CCR2 using a binding assay as outlined herein below:
THP-1 cells (human acute monocytic leukaemia cells) were cultured under standardized conditions at 37° C. and 5% CO2 in a humidified incubator. THP-1 cells were cultivated in RPMI 1640 medium (Gibco 21875) containing 1% MEM-NEAA (Gibso 11140) 2 mM L-glutamine, 1.5 g/L sodium bicarbonate, 4.5 g/L glucose, 10 mM HEPES and 1.0 mM sodium pyruvate, 90%; 10% fetal calf serum (FCS Gibco 10500-064).
Membranes were prepared from THP-1 cells. THP-1 cells were centrifuged at 300×g at 4° C. for 10 min. The cell pellet was resuspendet in Phosphate Buffer Saline (PBS, including 10 μM Pefabloc and a protease inhibitor mix ‘complete’, Boehringer Mannheim (1 tablet/50 ml)), to a concentration of […]. The membrane preparation was performed by disrupting the cells by nitrogen […] (at 50 bar, for 1 h) in a “Nitrogen Bombe” (Parr Instrument). Cell debris was removed by centrifugation (800×g at 4° C., 1 min). The supernatant was centrifuged at 80000×g, 4° C. for 30 min to sediment the cell membranes. Usually 50 mg of protein (Bradford assay) were yielded from 1×10E9 cells. The membranes were resuspendet in 25 mM HEPES, 25 mM MgCl2, 1 mM CaCl2, 10% Glycerine for storage in aliquots at −80° C. in 25 mM HEPES, 25 mM MgCl2, 1 mM CaCl2, 10% Glycerine and stored at −80° C.
Perkin Elmer NEX 332 Jod^125 MCP-1, Stock: 2200 Ci/mmol solved in 2000 μl assay buffer, stored at −20° C. THP-1 membrane were adjusted with 25 mM HEPES, pH 7.2; 5 mM MgCl2; 0.5 mM CaCl2; 0.2% BSA assay buffer to a concentration of 2.5 μg/15 μl. Amersham Biosciences PVT-WGA Beads (RPNQ0001) were adjusted with assay buffer to a concentration of 0.24 mg/30 μl. For preparation of the membrane-bead-suspension membranes and beads were incubated for 30 min at RT under rotation (60 rpm) with a ratio of 1:2. Test compounds dissolved in 100% DMSO to a concentration of 10 mM and are further diluted with 100% DMSO to 1 mM. All additional compound dilutions were obtained with assay buffer, final 1% DMSO. Compounds, membrane-bead-suspension and [^125]MCP-1 (ca. 25000 cpm/10 μl) were incubated. Bound radioactivity was determined by scintillation counter after 8 h. Determination of affinity of test compounds (dissociation constant hKi) is calculated by iterative fitting of experimental data using the “easy sys” program, which is based on law of mass action (Schittkowski K. (1994), Numerische Mathematik, Vol. 68, 129-142).

For assay [2], the target named is T2, human CCR5 (Homo sapiens, UniProt P51681).
T2 construct: expressed in transfected cells; host or cells: CHO cells co-expressing Gα16, grown under puromycin and zeocin selection; membrane preparation
T2 sequence (P51681 whole entry): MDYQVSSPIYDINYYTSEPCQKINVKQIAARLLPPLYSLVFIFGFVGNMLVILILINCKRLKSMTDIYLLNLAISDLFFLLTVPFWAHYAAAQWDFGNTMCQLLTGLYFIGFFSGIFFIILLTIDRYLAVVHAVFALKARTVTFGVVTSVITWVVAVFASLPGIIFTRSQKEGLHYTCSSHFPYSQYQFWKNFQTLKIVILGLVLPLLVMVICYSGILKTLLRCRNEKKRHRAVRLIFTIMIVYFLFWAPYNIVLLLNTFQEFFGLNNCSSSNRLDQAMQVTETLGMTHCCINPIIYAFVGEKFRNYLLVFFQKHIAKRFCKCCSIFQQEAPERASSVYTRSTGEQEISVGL
In words: CCR5 receptor membrane binding assay (CHO (Gα16) human CCR5 membranes, [125I]RANTES, SPA beads). To be noted: 6 h, read-out: hKi [nM] (CCR5). Here is the method: The above exemplary substances have been tested for binding to CCR5 using a binding assay as outlined herein below:
CHO, (Gα16) human CCR5 cells were cultured under standardized conditions at 37° C. and 5% CO2 in a humidified incubator. CHO (Gα16) human CCR5 cells were cultivated in Ham's F12 (Invitrogen; #31765068) supplemented with 10 µg/ml Puromycin (Invitrogen; #A11139-03), 200 µg/ml Zeocin (Invitrogen; #45-0003) and 10% FCS (Gibco; #10500-064).
Membranes were prepared from CHO (Gα16) human CCR5 cells. Cells were cultured on […] plates (Nunc; #166508) 2-3 days before membrane preparation (usually 80-100 plates to obtain 80 mg protein).
Cells were scraped off the plates with a big scraper and washed with 2×5 ml ice cold Phosphate Buffer Saline (PBS; Invitrogen; #14040-174). Cell suspension was collected in a glass bottle (on ice). Cell suspension was harvested at 1400 rpm and 4° C. for 10 min and washed in PBS. Cell pellet was resuspended in 40 ml PBS with protease inhibitor mix ‘complete’ (Roche; #11873580001; 1 tablet/50 ml).
For gentle cell disruption the membrane preparation was performed by using a homogenizer (potter). Cells were homogenized for 5-10 min.
Membranes were centrifuged at 1000 rpm and 4° C. for 5 min. Supernatant (=membrane) was harvested in a new falcon tube and remaining cell pellet homogenized again for 5-10 min with PBS with protease inhibitor mix and centrifuged. Collected supernatant was centrifuged at 40000 rpm and 4° C. for 30 min to sediment the cell membranes.
The membranes were resuspended in 25 mM HEPES, 25 mM MgCl2, 1 mM CaCl2, 10% Glycerine for storage in aliquots at −80° C. Membranes were diluted to a concentration of 5 mg/ml (Bradford Assay).
[^125I]RANTES, Stock: 1825 Ci/mmol, 25 μCi (Bio Trend #A3-AI-676) was solved in 1000 μl assay buffer (100 mM NaCl; 10 mM MgCl2; 50 mM Tris-HCl; 1 mM EDTA; 0.1% BSA, pH 7.6), stored at −20° C.
CHO (Gα16) human CCR5 membrane were solved on ice and adjusted with assay buffer to a concentration of 2.5 μg/15 μl.
Amersham Biosciences PVT-WGA Beads (GE Healthcare; #RPNQ0001) were adjusted with assay buffer to a concentration of 8 mg/ml. For preparation of the membrane-bead-suspension, membranes and beads were incubated for 30 min at RT under rotation with a ratio of 1:2.
Test compounds dissolved in 100% DMSO to a concentration of 10 mM and are further diluted with 100% DMSO to 1 mM. All additional compound dilutions were obtained with assay buffer, final 1% DMSO. 7 μl compound dilution, 45 μl membrane-bead-suspension and 10 μl [^125I]RANTES (ca. 20000 cpm/10 μl) were incubated at RT. Bound radioactivity was determined by scintillation counter after 6 h. Determination of affinity of test compounds (dissociation constant Ki) is calculated by iterative fitting of experimental data using the “easy sys” program, which is based on law of mass action (Schittkowski K. (1994), Numerische Mathematik, Vol. 68, 129-142).

Consider `Cc1c(NC[C@H]2CCC[C@@H](c3ccccc3)C2)ncnc1C(=O)N1CCC(N2CC3CN(S(C)(=O)=O)CC3C2)CC1` (stereo partly drawn) [Example 43], for which the Ki is 1 nM in assay [1] and 43 nM in assay [2].
The corresponding values for `Cc1c(NC[C@H]2CCC[C@@H](c3ccccc3)C2)ncnc1C(=O)N1CCC(N2CC3COCC3C2)CC1` (stereo partly drawn) [Example 44] are 7 nM and 65 nM.
Turning to `Cc1c(NCc2ccc(C(C)(C)C)cc2)ncnc1C(=O)N1CCC(N2CC3COCC3C2)CC1` (stereo not drawn) [Example 45], the Ki in assay [1] was 36 nM; in assay [2] it was 4110 nM.
